Structures can show the parent of a compound that is named as a salt.
Assays:
[1] = target: T1, catalytic domain (JH1, amino acids 808-1132) of human JAK2 (Homo sapiens, UniProt O60674); assay: JAK2 HTRF Enzyme Activity Assay; format: biochemical; conditions: ATP 30 μM, read-out: ENZ 30UMATP
T1 construct: catalytic domain (JH1, amino acids 808-1132) of human JAK2; His (N); purchased BPS Bioscience 40450; host or cells: baculovirus expression system
Outline: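 His-tagged JAK2 JH1 from baculovirus, 0.015 nM, incubated with compound, ATP at 30 μM or 1 mM and 500 nM biotinylated peptide, pH 7.5, 60 min at 25° C. HTRF read-out via Eu-anti-phosphotyrosine and streptavidin-APC after EDTA stop; IC50 from four-parameter dose-response fit.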

[2] = target: T2, pseudo-kinase domain (JH2, amino-acids 536-812) of human Wild Type JAK2 (Homo sapiens, UniProt O60674, F794H/W659A/W777A); assay: JAK2 LanthaScreen JH2-WT Binding Assay; conditions: 1 hour at 25° C.
T2 construct: pseudo-kinase domain (JH2, amino-acids 536-812 with 3 surface mutations W659A, W777A, F794H); purchased BPS Bioscience 79463; host or cells: baculovirus expression system
T2 sequence (O60674 536-812 W659A/W777A/F794H): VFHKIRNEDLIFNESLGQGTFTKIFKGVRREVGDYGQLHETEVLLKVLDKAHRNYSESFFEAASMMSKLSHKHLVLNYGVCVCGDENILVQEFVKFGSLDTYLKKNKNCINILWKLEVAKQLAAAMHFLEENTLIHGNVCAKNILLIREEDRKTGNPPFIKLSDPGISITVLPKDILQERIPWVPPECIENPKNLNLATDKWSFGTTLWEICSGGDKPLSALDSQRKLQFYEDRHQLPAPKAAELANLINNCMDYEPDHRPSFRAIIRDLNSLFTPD
Outline: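 Compounds, serially diluted, were mixed with 0.145 nM JH2 domain, 50 nM tracer and 0.25 nM streptavidin-Tb cryptate, then incubated 1 hour at 25° C before LanthaScreen reading. Wells containing 2 mM ATP defined non-specific binding. Four-parameter dose-response curves gave IC50.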

[3] = target: T3, pseudo-kinase domain (JH2, amino-acids 536-812) of human V617F mutant JAK2 (Homo sapiens, UniProt O60674, F794H/V617F/W659A/W777A); assay: JAK2 LanthaScreen JH2-V617F Binding Assay; conditions: 1 hour at 25° C.
T3 construct: pseudo-kinase domain (JH2, amino-acids 536-812 with 3 surface mutations W659A, W777A, F794H); purchased BPS Bioscience 79498; host or cells: baculovirus expression system
T3 sequence (O60674 536-812 V617F/W659A/W777A/F794H): as the sequence (O60674 536-812 W659A/W777A/F794H) above, with V82F counted along it
Outline: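 Competition of compounds with a fluorescent tracer (50 nM) for the biotinylated domain (0.26 nM), detected via streptavidin-Tb (0.25 nM) after 1 h at 25° C in pH 7.5 Tris buffer containing glycerol, BSA and Brij-35. ATP at 2 mM gave background. IC50 by four-parameter fit.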

[4] = target: T4, catalytic domain (JH1, amino acids 826-1132) of human JAK2 (Homo sapiens, UniProt O60674); assay: JAK2 LanthaScreen JH1 Binding Assay; conditions: 2 hours at 25° C.
T4 construct: catalytic domain (JH1, amino acids 826-1132) of human JAK2; purchased Carna Biosciences 08-445-20N; host or cells: baculovirus expression system
T4 sequence (O60674 826-1132): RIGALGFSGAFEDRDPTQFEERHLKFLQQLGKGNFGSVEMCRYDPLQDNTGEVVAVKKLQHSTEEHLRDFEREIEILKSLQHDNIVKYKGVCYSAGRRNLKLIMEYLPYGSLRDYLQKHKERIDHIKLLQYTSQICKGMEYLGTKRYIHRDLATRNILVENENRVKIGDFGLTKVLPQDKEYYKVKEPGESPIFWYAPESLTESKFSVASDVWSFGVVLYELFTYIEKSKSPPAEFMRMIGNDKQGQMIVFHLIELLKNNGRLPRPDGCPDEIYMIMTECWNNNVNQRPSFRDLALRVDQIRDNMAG
Outline: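 FLAG-tagged biotinylated JAK2 JH1 (1.5 nM) incubated with compounds, 50 nM fluorescent tracer and 0.5 nM streptavidin-Tb in Tris pH 7.5 buffer with MgCl2, BSA, DTT, 2 h at 25 °C.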

T1 sequence (O60674 808-1132): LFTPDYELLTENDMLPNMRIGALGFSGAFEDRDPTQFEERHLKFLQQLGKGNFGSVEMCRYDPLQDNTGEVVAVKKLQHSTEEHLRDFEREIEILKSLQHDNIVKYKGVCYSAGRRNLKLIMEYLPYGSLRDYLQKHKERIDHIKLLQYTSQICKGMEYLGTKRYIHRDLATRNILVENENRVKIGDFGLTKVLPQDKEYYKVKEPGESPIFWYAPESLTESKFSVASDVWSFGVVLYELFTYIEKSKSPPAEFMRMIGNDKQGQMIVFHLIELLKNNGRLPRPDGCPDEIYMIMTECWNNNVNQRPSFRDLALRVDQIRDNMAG

Compound | IC50 [1] | IC50 [2] | IC50 [3] | IC50 [4]
CN1C(=O)C2(CCN(CCC#N)CC2)c2c1cnc1[nH]c(-c3ccc(CN4CCC(S(C)(=O)=O)CC4)cc3)c(-c3ccccc3)c21 [Example 4, 3-(6-Methyl-2-((4(4-(methylsulfonyl)piperidin-1-yl)methyl)phenyl)-7-oxo-1-phenyl-6,7-dihydro-3H-spiro[dipyrrolo[2,3-b:3′,2′-d]pyridine-8,4′-piperidin]-1′-yl)propanenitrile trifluoroacetate salt] | 500 to 1250 nM | ≤ 100 nM | ≤ 100 nM | 500 to 1250 nM
[2H]C([2H])([2H])n1ncc2cc(-c3c(-c4cnn5c4CCC5)[nH]c4ncc5c(c34)C3(CCN(C4(CC#N)CCCC4)CC3)C(=O)N5C)ccc21 [Example 79, 2-(1-(2-(5,6-Dihydro-4H-pyrrolo[1,2-b]pyrazol-3-yl)-6-methyl-1-(1-(methyl-d3)-1H-indazol-5-yl)-7-oxo-6,7-dihydro-3H-spiro[dipyrrolo[2,3-b:3′,2′-d]pyridine-8,4′-piperidin]-1′-yl)cyclopentyl)acetonitrile] | 1250 to 2500 nM | ≤ 100 nM | ≤ 100 nM | > 2500 nM
2′-(1-(1-Cyclopropylethyl)-1H-pyrazol-4-yl)-1-(ethylsulfonyl)-6′-(methyl-d3)-r-(1-methyl-1H-indazol-5-yl)-3′,6′-dihydro-7′H-spiro[azepane-4,8′-dipyrrolo[2,3-b:3′,2′-d]pyridin]-7′-one, trifluoroacetate salt [Example 104] | 100 to 500 nM | ≤ 100 nM | ≤ 100 nM | 100 to 500 nM
O=C(O)C(F)(F)F.[2H]C([2H])([2H])n1ncc2cc(-c3c(-c4ccc(CN5CCOCC5)cc4)[nH]c4ncc5c(c34)C3(CC4(CN(S(=O)(=O)CC)C4)C3)C(=O)N5C)ccc21 [Example 85, 1-(Ethylsulfonyl)-6″-methyl-1″-(1-(methyl-d3)-1H-indazol-5-yl)-2″-(4-(morpholinomethyl)phenyl)-3″,6″-dihydro-7″H-dispiro[azetidine-3,1′-cyclobutane-3′,8″-dipyrrolo[2,3-b:3′,2′-d]pyridin]-7″-one, trifluoroacetate salt] | 1250 to 2500 nM | ≤ 100 nM | ≤ 100 nM | 1250 to 2500 nM
CN1C(=O)C2(C=CN(C3(CC#N)CC3)C=C2)c2c1cnc1[nH]c(-c3cnn(C)c3)c(-c3ccc4c(cnn4C)c3)c21 [Example 74, 2-(1-(6-Methyl-1-(1-methyl-1H-indazol-5-yl)-2-(1-methyl-1H-pyrazol-4-yl)-7-oxo-6,7-dihydro-1′H,3H-spiro[dipyrrolo[2,3-b:3′,2′-d]pyridine-8,4′-pyridin]-1′-yl)cyclopropyl)acetonitrile, trifluoroacetate salt] | 500 to 1250 nM | ≤ 100 nM | ≤ 100 nM | 500 to 1250 nM
CN1C(=O)C2(CCN(C3(CC#N)CCC3)CC2)c2c1cnc1[nH]c(-c3cnn(C)c3)c(-c3ccc4c(cnn4C)c3)c21 [Example 31, 2-(1-(6-Methyl-1-(1-methyl-1H-indazol-5-yl)-2-(1-methyl-1H-pyrazol-4-yl)-7-oxo-6,7-dihydro-3H-spiro[dipyrrolo[2,3-b:3′,2′-d]pyridine-8,4′-piperidin]-1′-yl)cyclobutyl)acetonitrile, trifluoroacetate salt] | 100 to 500 nM | ≤ 100 nM | ≤ 100 nM | 100 to 500 nM
CCCC(=O)N1CCC2(CC1)CC1(C2)C(=O)N(C)c2cnc3[nH]c(-c4cnn(C)c4)c(-c4ccc5c(cnn5C)c4)c3c21 [Example 59, 1″-Butyryl-6-methyl-1-(1-methyl-1H-indazol-5-yl)-2-(1-methyl-1H-pyrazol-4-yl)-3,6-dihydro-7H-dispiro[dipyrrolo[2,3-b:3′,2′-d]pyridine-8,1′-cyclobutane-3′,4″-piperidin]-7-one, trifluoroacetate salt] | 1250 to 2500 nM | ≤ 100 nM | ≤ 100 nM | 1250 to 2500 nM
CCNC(=O)NC1CC(CC#N)(N2CCC3(CC2)C(=O)N(C)c2cnc4[nH]c(-c5cnn(C)c5)c(-c5ccccc5)c4c23)C1 (stereo not drawn) [Example 28, 1-(3-(Cyanomethyl)-3-(6-methyl-2-(1-methyl-1H-pyrazol-4-yl)-7-oxo-1-phenyl-6,7-dihydro-3H-spiro[dipyrrolo[2,3-b:3′,2′-d]pyridine-8,4′-piperidin]-1′-yl)cyclobutyl)-3-ethylurea, trifluoroacetate salt] | 100 to 500 nM | ≤ 100 nM | ≤ 100 nM | 100 to 500 nM
CN1C(=O)C2(CCN(C3(CC#N)CCCC3)CC2)c2c1cnc1[nH]c(-c3cnn(C)c3)c(-c3ccc4c(cnn4C)c3)c21 [Example 73, 2-(1-(6-Methyl-1-(1-methyl-1H-indazol-5-yl)-2-(1-methyl-1H-pyrazol-4-yl)-7-oxo-6,7-dihydro-3H-spiro[dipyrrolo[2,3-b:3′,2′-d]pyridine-8,4′-piperidin]-1′-yl)cyclopentyl)acetonitrile, trifluoroacetate salt] | 100 to 500 nM | ≤ 100 nM | ≤ 100 nM | 100 to 500 nM
[2H]C([2H])([2H])n1ncc2cc(-c3c(-c4cnn(C)c4)[nH]c4ncc5c(c34)C3(CCN([C@@](C)(CC#N)COC)CC3)C(=O)N5C)ccc21 (single isomer, unassigned) [Example 80b] | 500 to 1250 nM | ≤ 100 nM | ≤ 100 nM | 500 to 1250 nM
CON1C(=O)C2(CCN(CC3(CC#N)CC3)C2)c2c1cnc1[nH]c(-c3cnn(C)c3)c(-c3ccc4c(cnn4C)c3)c21 (racemic) [Example 72, 2-(1-((6-Methoxy-1-(1-methyl-1H-indazol-5-yl)-2-(1-methyl-1H-pyrazol-4-yl)-7-oxo-6,7-dihydro-3H-spiro[dipyrrolo[2,3-b:3′,2′-d]pyridine-8,3′-pyrrolidin]-1′-yl)methyl)cyclopropyl)acetonitrile, trifluoroacetate salt] | 500 to 1250 nM | 500 to 1250 nM | 1250 to 2500 nM | > 2500 nM
CN1C(=O)C2(CCN(CC3(CC#N)CC3)C2)c2c1cnc1[nH]c(-c3cnn4cccnc34)c(-c3ccc4c(cnn4C)c3)c21 (racemic) [Example 68, 2-(1-((6-Methyl-1-(1-methyl-1H-indazol-5-yl)-7-oxo-2-(pyrazolo[1,5-a]pyrimidin-3-yl)-6,7-dihydro-3H-spiro[dipyrrolo[2,3-b:3′,2′-d]pyridine-8,3′-pyrrolidin]-1′-yl)methyl)cyclopropyl)acetonitrile, trifluoroacetate salt] | > 2500 nM | ≤ 100 nM | ≤ 100 nM | > 2500 nM
CN1C(=O)C2(CCN(c3cnn(C4(CC#N)CCOCC4)c3)CC2)c2c1cnc1[nH]c(-c3cnn(C)c3)c(-c3ccccc3)c21 [Example 6, 2-(4-(4-(6-Methyl-2-(1-methyl-1H-pyrazol-4-yl)-7-oxo-1-phenyl-6,7-dihydro-3H-spiro[dipyrrolo[2,3-b:3′,2′-d]pyridine-8,4′-piperidin]-1′-yl)-1H-pyrazol-1-yl)tetrahydro-2H-pyran-4-yl)acetonitrile trifluoroacetate salt] | > 2500 nM | ≤ 100 nM | ≤ 100 nM | > 2500 nM
CCS(=O)(=O)N1CC2(C1)CC1(C2)C(=O)N(C)c2cnc3[nH]c(-c4cnn(C(C)C)c4)c(-c4ccc5c(cnn5C)c4)c3c21 [Example 54, 1-(Ethylsulfonyl)-2″-(1-isopropyl-1H-pyrazol-4-yl)-6″-methyl-1″-(1-methyl-1H-indazol-5-yl)-3″,6″-dihydro-7″H-dispiro[azetidine-3,1′-cyclobutane-3′,8″-dipyrrolo[2,3-b:3′,2′-d]pyridin]-7″-one, trifluoroacetate salt] | 500 to 1250 nM | ≤ 100 nM | ≤ 100 nM | 500 to 1250 nM
CN1C(=O)C2(CCN(C(C(N)=O)c3ccc(F)cc3)CC2)c2c1cnc1[nH]c(-c3cnn(C)c3)c(-c3ccccc3)c21 (racemic) [Example 26, 2-(4-Fluorophenyl)-2-(6-methyl-2-(1-methyl-1H-pyrazol-4-yl)-7-oxo-1-phenyl-6,7-dihydro-3H-spiro[dipyrrolo[2,3-b:3′,2′-d]pyridine-8,4′-piperidin]-1′-yl)acetamide, trifluoroacetate salt] | ≤ 100 nM | ≤ 100 nM | ≤ 100 nM | 100 to 500 nM

From patent US11958861B2, “Spirocyclic lactams as JAK2 V617F inhibitors” (Incyte Corporation, priority 2021, dated 2024)
